According to patent US12606561B2, “Substituted pyrazolo[1,5-a][1,3,5]triazines as CDK inhibitors” (QURIENT CO., LTD., priority 2018, dated 2026):

Experiments:
CDK1/Cyclin B = molecular target: T1, CDK1/Cyclin B (Homo sapiens, UniProt P06493); experiment: Enzymatic assay for CDK1 (LANCE Ultra kinase assay, FRET based); format: biochemical; details: ATP at Km; read-out: CDK1 enzymatic activity IC50
T1 construct: purchased Invitrogen PR4768C
Summary of the method: (§1)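 Purified CDK–cyclin enzyme, ATP at Km; ULight peptide substrate; TR-FRET via Eu anti-phospho-Ab; inhibition scored.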

CDK2/Cyclin A = molecular target: T2, CDK2/Cyclin A (Homo sapiens, UniProt P24941); experiment: Enzymatic assay for CDK2 (LANCE Ultra kinase assay, FRET based); format: biochemical; details: ATP at Km
T2 construct: purchased Invitrogen PV6290
Summary of the method: (§2)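 Compounds tested as 8 doses in 4-fold steps against CDK2/Cyclin A ([…]) or CDK5/p25 ([…]), with ATP at its Km and 68 nM ULight-MBP substrate. After 60 min at 23° C., EDTA plus Eu-labelled anti-phospho-MBP added; TR-FRET (615/665 nm) read after another 60 min.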

CDK5/p25 = molecular target: T3, CDK5/p25 (Homo sapiens, UniProt Q00535); experiment: Enzymatic assay for CDK5 (LANCE Ultra kinase assay, FRET based); format: biochemical; details: ATP at Km
T3 construct: purchased Invitrogen PR8543B
Summary of the method: as §2

CDK7/Cyclin H/MNAT1 = molecular target: T4, CDK7/Cyclin H/MNAT1 (Homo sapiens, UniProt P50613); experiment: Enzymatic assay for CDK7 (LANCE Ultra kinase assay, FRET based); format: biochemical; details: for IC50: ATP at Km
T4 construct: purchased Invitrogen PR6749B
Summary of the method: as §1

A2780 = A2780 viability assay (CellTiter-Glo, 72 hours); format: cell-based; details: Homo sapiens; A2780 cells
Summary of the method: (§3)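 RPMI-1640/10% FBS; plate cells (MV4-11 1×10^4, OVCAR-3 5×10^3, A2780 1×10^3 per well); 24 h later add compound 0.0015–10 uM; 72 h, 37° C; CellTiter-Glo luminescence, duplicate wells.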

OVCAR-3 = OVCAR-3 viability assay (CellTiter-Glo, 72 hours); format: cell-based; details: Homo sapiens; OVCAR-3 cells
Summary of the method: as §3

T4 sequence (P50613 whole entry): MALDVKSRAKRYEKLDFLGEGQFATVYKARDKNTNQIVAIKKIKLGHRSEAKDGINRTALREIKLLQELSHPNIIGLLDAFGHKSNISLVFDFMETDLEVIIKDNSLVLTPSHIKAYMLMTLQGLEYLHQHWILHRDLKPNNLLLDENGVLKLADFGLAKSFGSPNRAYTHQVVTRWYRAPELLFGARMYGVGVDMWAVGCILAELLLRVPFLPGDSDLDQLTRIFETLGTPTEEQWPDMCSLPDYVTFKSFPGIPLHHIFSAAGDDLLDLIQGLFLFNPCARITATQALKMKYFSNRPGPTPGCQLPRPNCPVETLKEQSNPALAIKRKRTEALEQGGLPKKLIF
T4 sequence (P51946 whole entry partner): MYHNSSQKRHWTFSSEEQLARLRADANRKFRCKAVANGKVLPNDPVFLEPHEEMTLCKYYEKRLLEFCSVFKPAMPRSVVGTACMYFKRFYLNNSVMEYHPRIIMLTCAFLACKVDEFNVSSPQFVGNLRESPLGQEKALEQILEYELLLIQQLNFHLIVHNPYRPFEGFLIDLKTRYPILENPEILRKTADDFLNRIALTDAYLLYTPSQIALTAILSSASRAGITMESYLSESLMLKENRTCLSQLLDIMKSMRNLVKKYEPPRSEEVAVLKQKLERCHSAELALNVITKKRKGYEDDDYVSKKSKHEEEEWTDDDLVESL
T4 sequence (P51948 whole entry partner): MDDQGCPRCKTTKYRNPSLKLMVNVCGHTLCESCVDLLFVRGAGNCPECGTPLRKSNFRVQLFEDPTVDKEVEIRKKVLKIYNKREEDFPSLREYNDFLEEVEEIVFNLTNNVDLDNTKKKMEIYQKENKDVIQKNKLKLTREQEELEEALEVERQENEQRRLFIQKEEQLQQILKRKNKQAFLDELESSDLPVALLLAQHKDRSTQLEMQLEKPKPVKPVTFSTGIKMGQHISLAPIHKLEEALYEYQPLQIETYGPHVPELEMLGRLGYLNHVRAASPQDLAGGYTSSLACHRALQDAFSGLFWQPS
T3 sequence (Q00535 whole entry): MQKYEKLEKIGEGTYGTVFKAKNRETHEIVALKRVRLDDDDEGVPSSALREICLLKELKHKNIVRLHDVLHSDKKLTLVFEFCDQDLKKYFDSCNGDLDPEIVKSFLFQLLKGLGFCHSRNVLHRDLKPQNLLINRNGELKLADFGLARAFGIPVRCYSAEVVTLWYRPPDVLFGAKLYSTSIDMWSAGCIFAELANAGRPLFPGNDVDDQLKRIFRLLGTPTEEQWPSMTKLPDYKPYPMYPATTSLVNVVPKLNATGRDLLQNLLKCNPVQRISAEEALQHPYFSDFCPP
T3 sequence (Q15078 99-307 partner limits assumed): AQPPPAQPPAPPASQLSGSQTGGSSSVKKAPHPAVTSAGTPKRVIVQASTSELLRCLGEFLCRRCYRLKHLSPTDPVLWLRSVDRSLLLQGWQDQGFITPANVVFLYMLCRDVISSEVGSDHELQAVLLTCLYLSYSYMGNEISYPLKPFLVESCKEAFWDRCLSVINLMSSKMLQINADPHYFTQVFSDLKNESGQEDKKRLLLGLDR
T1 sequence (P06493 whole entry): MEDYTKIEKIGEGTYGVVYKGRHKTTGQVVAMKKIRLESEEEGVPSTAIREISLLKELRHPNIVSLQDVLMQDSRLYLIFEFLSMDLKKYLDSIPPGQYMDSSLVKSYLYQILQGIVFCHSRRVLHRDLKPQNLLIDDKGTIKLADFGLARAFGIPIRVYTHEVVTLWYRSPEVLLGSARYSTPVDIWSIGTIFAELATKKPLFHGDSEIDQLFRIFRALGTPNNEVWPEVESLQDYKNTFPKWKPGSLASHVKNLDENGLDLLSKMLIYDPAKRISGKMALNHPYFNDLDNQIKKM
T1 sequence (P14635 whole entry partner): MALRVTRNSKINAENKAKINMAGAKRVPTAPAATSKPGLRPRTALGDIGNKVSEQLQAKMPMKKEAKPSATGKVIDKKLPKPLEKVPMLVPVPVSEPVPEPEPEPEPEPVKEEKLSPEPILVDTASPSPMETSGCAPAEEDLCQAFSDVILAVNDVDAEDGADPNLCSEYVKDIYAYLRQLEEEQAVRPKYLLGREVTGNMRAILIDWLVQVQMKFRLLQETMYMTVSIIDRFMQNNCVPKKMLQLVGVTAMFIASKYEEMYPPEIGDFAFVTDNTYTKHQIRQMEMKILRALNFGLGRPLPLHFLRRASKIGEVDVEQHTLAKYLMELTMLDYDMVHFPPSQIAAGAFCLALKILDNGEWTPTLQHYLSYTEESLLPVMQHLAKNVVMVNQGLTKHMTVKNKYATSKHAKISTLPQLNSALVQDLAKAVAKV

| Compound | IC50 (CDK1/Cyclin B) [nM] | IC50 (CDK2/Cyclin A) [nM] | IC50 (CDK5/p25) [nM] | IC50 (CDK7/Cyclin H/MNAT1) [nM] | CDK1/CDK7: Selectivity of CDK7 inhibition over CDK1 inhibition (CDK7/Cyclin H/MNAT1) | CDK2/CDK7: Selectivity of CDK7 inhibition over CDK2 inhibition (CDK7/Cyclin H/MNAT1) | CDK5/CDK7: Selectivity of CDK7 inhibition over CDK5 inhibition (CDK7/Cyclin H/MNAT1) | IC50 (A2780) [nM] | IC50 (OVCAR-3) [nM] |
| --- | --- | --- | --- | --- | --- | --- | --- | --- | --- |
| CC(C)c1cnn2c(NCc3ccccc3-c3nccc4cc(NC(=O)/C=C/CN(C)C)ccc34)nc(OC3CC4CCC(C3)N4C)nc12 (stereo not drawn) [Compound 122] | > 1000 | > 1000 | > 1000 | < 100 | A (A indicates [fold] > 500) | A (A indicates [fold] > 500) | A (A indicates [fold] > 500) | < 1000 | < 1000 |
| CC(C)c1cnn2c(NCc3ccccc3-c3nccc4cc(NC(=O)/C=C/CN(C)C)ccc34)nc(N3CC4CCC(C3)N4C)nc12 [Compound 123] | > 1000 | > 1000 | > 1000 | < 100 | A (A indicates [fold] > 500) | A (A indicates [fold] > 500) | A (A indicates [fold] > 500) | < 1000 | < 1000 |
| COC1CC2CCC(C1)N2c1cc(NCc2ccccc2-c2nccc3cc(NC(=O)/C=C/CN(C)C)ccc23)n2ncc(C(C)C)c2n1 (stereo not drawn) [Compound 125] | > 1000 | > 1000 | > 1000 | 100 to 1000 | B (B indicates 50 < [fold] ≤ 500) | B (B indicates 50 < [fold] ≤ 500) | B (B indicates 50 < [fold] ≤ 500) | < 1000 | < 1000 |
| CO[C@H]1CC[C@H](Nc2nc(NCc3c(C)cccc3-c3ccc4cccc(NC(=O)/C=C/CN(C)C)c4n3)n3ncc(C(C)C)c3n2)CC1 [Compound 127] | > 1000 | > 1000 | > 1000 | 100 to 1000 | B (B indicates 50 < [fold] ≤ 500) | B (B indicates 50 < [fold] ≤ 500) | B (B indicates 50 < [fold] ≤ 500) | < 1000 | < 1000 |

More lines, now with the values ahead:

| IC50 (CDK1/Cyclin B) [nM] | IC50 (CDK2/Cyclin A) [nM] | IC50 (CDK5/p25) [nM] | IC50 (CDK7/Cyclin H/MNAT1) [nM] | CDK1/CDK7: Selectivity of CDK7 inhibition over CDK1 inhibition (CDK7/Cyclin H/MNAT1) | CDK2/CDK7: Selectivity of CDK7 inhibition over CDK2 inhibition (CDK7/Cyclin H/MNAT1) | CDK5/CDK7: Selectivity of CDK7 inhibition over CDK5 inhibition (CDK7/Cyclin H/MNAT1) | IC50 (A2780) [nM] | IC50 (OVCAR-3) [nM] | Compound |
| --- | --- | --- | --- | --- | --- | --- | --- | --- | --- |
| > 1000 | > 1000 | > 1000 | < 100 | B (B indicates 50 < [fold] ≤ 500) | B (B indicates 50 < [fold] ≤ 500) | B (B indicates 50 < [fold] ≤ 500) | < 1000 | < 1000 | CC(C)c1cnn2c(NCc3ccccc3-c3nccc4cc(NC(=O)/C=C/CN(C)C)ccc34)cc(N3CCC4(CC3)OCCO4)nc12 [Compound 124] |
| > 1000 | > 1000 | > 1000 | 100 to 1000 | B (B indicates 50 < [fold] ≤ 500) | B (B indicates 50 < [fold] ≤ 500) | B (B indicates 50 < [fold] ≤ 500) | < 1000 | < 1000 | CC(C)c1cnn2c(NCc3ccccc3-c3nccc4cc(NC(=O)/C=C/CN(C)C)ccc34)nc(N3CCC(S(=O)(=O)N(C)C)CC3)nc12 [Compound 126] |
| > 1000 | > 1000 | > 1000 | < 100 | A (A indicates [fold] > 500) | A (A indicates [fold] > 500) | A (A indicates [fold] > 500) | < 1000 | < 1000 | CC(C)c1cnn2c(NCc3ccccc3-c3nccc4cc(NC(=O)/C=C/CN(C)C)ccc34)nc(N3CCC4(CCN(C)CC4)CC3)nc12 [Compound 128] |
